The numbers were not newly measured in patent US7067320B2, “Sensor for luminescense-optical determination of an analyte” (Roche Diagnostics Operations, Inc., priority 2000, dated 2006), which cites them from elsewhere.

Like-named read-outs stand apart in the source and are kept apart here.

As to Dibromoxylenol blue, the pKa (commonly the pH at which an ionisable group is half protonated) was 7.6.

Regarding `Cc1ccc(O)c(N=Nc2c(O)cc(S(=O)(=O)O)c3ccccc23)c1` [Calmagit], the pKa is 8.0. For the compound `O=S1(=O)OC(c2cc(Br)c(O)c(Br)c2)(c2cc(Br)c(O)c(Br)c2)c2ccccc21` [Bromophenol blue], the pKa is given as 3.8. For `Cc1c(C2(c3cc(C(C)C)c(O)c(Br)c3C)OS(=O)(=O)c3ccccc32)cc(C(C)C)c(O)c1Br` [Bromothymol blue], the pKa is given as 6.7. Consider `O=C1OC(c2ccc(O)c3ccccc23)(c2ccc(O)c3ccccc23)c2ccccc21` [Naphthol-phthalein], for which the pKa was 6.7. In addition, the pKa (second value printed in the same cell) is 7.9. Consider `O=C1C=CC(=Nc2ccc(O)cc2)C=C1Cl` [o-chlorophenol-indophenol], for which the pKa is 7.1.
